Assay results from patent US20020177580A1, “Means and method for hormonal contraception” (priority 2001, published 2002).
Entries after “also recorded” stand apart in the source; their conditions may differ.

Assays:
women = test: Clinical study with dydrogesterone as progestogen-only preparation (Example 5); type: in vivo, human; details: 20 mg dydrogesterone once a day, uninterruptedly for 4 months
From the text: Women participating in the study described in these examples are all selected on the basis that they are users of ‘high’ dose monophasic ethinyl estradiol-containing combined oral contraceptives. The reasons for applying this selection criterion is that there is a dose-relationship between follicular development and ethinyl estradiol whether given alone or in combination with a progestogen, i.e. less follicular development in the presence of the higher dose. Participation of the females involved in the study starts at a moment of (almost) complete suppression of follicular development. This condition is not met if a female has her first day of bleeding in a natural cycle, after a tablet-free interval, or immediately after a low-dose combined oral contraceptive.
A clinical study with dydrogesterone as a progestogen-only preparation is conducted in 8 women who were selected on the basis of the criteria mentioned in Example 1. The 8 women receive a 20 mg dosage of dydrogesterone once a day, uninterruptedly during a period of 4 months.

[1] = compared with commercially used synthetic progestogens; cited from earlier work
[2] = hormone replacement therapy with 17beta-estradiol dydrogesterone (Grisar et al., 1999); cited from earlier work
ovulation = details: humans; reported by Claassen et al., Acta Endocrinologica (1967); cited from earlier work

SMILES: CC(=O)[C@H]1CC[C@H]2[C@@H]3C=CC4=CC(=O)CC[C@@]4(C)[C@@H]3CC[C@]12C [dydrogesterone, 9β,10α-pregna-4,6-diene-3,20-dione]
- irregular bleeding (women): some unpredictable irregular bleeding
- menses flow (women): reduction of the usual menses flow
- ovulation inhibition (women): Ovulation is inhibited
- estrogenic, glucocorticoid, anabolic or androgenic properties [1]: does not exhibit estrogenic, glucocorticoid, anabolic or androgenic properties
- adverse effects on blood pressure [2]: no adverse effects on blood pressure
- inhibition of ovulation (ovulation): cannot be used to inhibit ovulation; also recorded: does not inhibit ovulation in humans
